Entries after “also recorded” stand apart in the source; their conditions may differ.
Key:
[1] = test system: CD98 (4F2hc, SLC3A2); test: Surface CD98 nutrient transporter down-regulation by flow cytometry; format: cell-based, murine; settings: FL5.12 cells
Source text: (§1) In an exemplified study, nutrient transporter down-regulation was monitored by quantifying surface levels of the amino acid transporter-associated protein, CD98, by flow cytometry. Vacuolation was scored in a range from 0 to […], as determined by a vacuolation assay described in greater detail in the Materials and Methods section below.
(§2) Cell culture studies: FL5.12 cells (murine hematopoetic cells originally obtained from Craig Thompson, Memorial Sloan Kettering Cancer Center) were maintained at 0.1-0.5 million/ml in RPMI 1640 (Mediatech) supplemented with 10% fetal calf serum (FCS, Sigma-Aldrich), 10 mM Hepes (Mediatech), 500 pg/ml recombinant IL-3 (cat #575502, Biolegend), 55 μM β-mercaptoethanol (Sigma-Aldrich), 2 mM L-glutamine (Mediatech), and antibiotics. Cells were screened for Mycoplasma every 3 months using the Look-Out Mycoplasma PCR Detection kit (cat #MP0035, Sigma).
Nutrient transporter expression: Surface CD98 (4F2hc, SLC3A2) expression was measured at 3 h using phycoerythrin (PE)-conjugated rat anti-mouse CD98 antibody (Biolegend, cat #128208); analysis was restricted to viable cells. PE conjugated Rat IgG2a, k (cat #400508, Biolegend) was used as an isotype control. For staining, 200,000 cells were pelleted, re-suspended in 100 μl FACS block (PBS with 10% FCS and 0.05% NaN3) containing 0.25 μL anti-CD98 antibody, incubated on ice for 30 min, washed twice with 1 ml FACS wash (PBS containing 2% FCS and 0.05% NaN3), and analyzed on a BD LSR II flow cytometer. Data was processed with FlowJo software (Treestar).

[2] = test system: murine hematopoietic cell line FL5.12; test: Viability of FL5.12 cells by vital dye exclusion; format: cell-based; settings: FL5.12 cells, 48 h, vital dye exclusion, n ≥3
Experimental: as §2
IC50 values were calculated using GraphPad Prism (GraphPad Software, Inc, La Jolla, Calif.).

[3] = test system: FL5.12 cells; test: Vacuolation assay; format: cell-based, murine; set-up: key to Vacuolation score: 0-100 score: (3×%cat3+2×%cat2+1×%cat1)/3; cells graded 0-3 for vacuoles; settings: FL5.12 cells; for Vacuolation score: 3 h in 2.5 μM compound except where otherwise indicated, mean ± SEM, n ≥3; for vacuolation (in words): at any dose / highest dose tested
Experimental: as §1
Vacuolation assay: Cells were evaluated at 100× using brightfield microscopy and a Nikon TE2000-S fluorescence microscope equipped with DIC filters. Vacuolation was quantified after a 3 h incubation period in 2.5 μM compound except where otherwise indicated. To calculate a vacuolation score, vacuolation severity in at least 15 individual cells/experiment was assessed qualitatively. Scores were assigned to individual cells as follows: 0=no vacuoles, 1=very small vacuoles, 2=multiple well-defined vacuoles, 3=multiple large vacuoles. To calculate the vacuolation score associated with a compound, the following formula was used: vacuolation score=[(3×% cells in category 3)+(2×% cells in category 2)+(1×% cells in category 1)]/3.
The score is divided by 3 so that a compound with 100% of its cells in category 3 would have a vacuolation score of 100. Three independent experiments were conducted and the vacuolation scores averaged to generate a mean+/−SEM. All cells were scored by one lab member after confirming that a blinded individual scored 5 compounds with similar results.

[4] = test system: PP2A; test: PP2A phosphatase activity; format: biochemical, murine; settings: PP2A immunoprecipitated from FL5.12 cell lysates, phosphopeptide dephosphorylation
Source text: Furthermore, many embodiments of the invention are directed to azacyclic constrained sphingolipid-like molecules inducing internalization of nutrient transporters via a mechanism that activates PP2A. […] Thus, activation of PP2A is very peculiar to certain sphingolipid structures. Activation of PP2A by FTY720 and SH-BC-893 also stimulated vacuolation, and as the PP2A inhibitors calyculin A and SV40 small t antigen, each blocked this effect (FIG. 59C). Of note, YM201636-induced vacuolation was unaffected by PP2A inhibition (FIG. 60B). In addition, inhibiting PP2A restored PIKfyve to the proper location within vacuoles in cells treated with FTY720 or SH-BC-893 (FIG. 57D).
PP2A phosphatase activity. PP2A activity was measured using a PP2A immunoprecipitation phosphatase assay kit (EMD Millipore). Briefly, the catalytic subunit of PP2A was immunoprecipitated from FL5.12 cell lysates with 4 μg anti-PP2A, C subunit. After four washes, the activity of immunoprecipitated PP2A was assessed by dephosphorylation of the phosphopeptide according to the manufacturer's instructions in the presence or absence of C2-ceramide, dihydro-C2-ceramide, FTY720, SH-BC-893, or calyculinA.

CCCCCCCCCCCCC/C=C/[C@@H](O)[C@H](CO)NC(C)=O [Compound 109, C2-ceramide, reference compound]
concentration required to cause similar transporter loss ([1]; CD98 loss): 50 µM | % CD98 down-regulation ([1]; surface CD98 at 3 h, flow cytometry, mean ± SEM, n ≥3): 47 ± 3% | IC50 ([2]; read-out: IC50 (μM) [95% CI]): 33 µM | Vacuolation score [3]: 0 | vacuolation (in words) [3]: did not cause vacuolation | PP2A activation [4]: activating PP2A

CCCCCCCCCCCCCCC[C@@H](O)[C@H](CO)NC(C)=O [Compound 110, dihydro-C2-ceramide, reference compound]
IC50 (μM) [95% CI] [2]: failed to kill cells; also recorded: Cytostatic | Vacuolation score [3]: 0 | vacuolation (in words) [3]: caused no vacuolation | PP2A activation [4]: does not activate PP2A
